In one series the target is EGFR^WT (Homo sapiens, UniProt P00533). Kind of series: EGFR inhibitory assay (Z-lyte kinase assay kit, Tyr 4 peptide, FRET-based). In kind it is biochemical. On the procedure:
The test compounds were analyzed for EGFR inhibitory potential using z-lyte kinase assay kit–tyr 4 peptide assay kit (catalogue no. PV3193; Thermofisher, Mumbai, Maharashtra, India). The assay biochemically is FRET-based, which involves coupled enzyme format that relies on differential sensitivity of proteolytic cleavage of phosphorylated and non-phosphorylated peptides. The reaction proceeds in two steps, first involving the kinase reaction that is concerned with the transfer of phosphate group from ATP to single tyrosine residue, followed by development reaction, which involves site-protease role and cleaves non-phosphorylated peptide, allowing the disruption of FRET between donor and acceptor end of phosphorylated peptide, which facilitates deducing the emission ratio. The assay was performed per manufacturer protocol and per our published reports. […] Next, the assay master mix was prepared under ice-cold conditions by thawing and mixing kinase buffer (133 µL), kinase peptides (0.5 µL), phosphopeptide (0.5 µL) along with ATP (0.5 µL) solution. The master mix was added to testing compounds and further incubated for 1 h at room temperature and allowed the kinase reaction followed by development reaction to occur. After the stipulated period, reaction was stopped by addition of 5 µL stop solution to each reaction mixture.
The extent of phosphorylation was calculated by the following formula (Equation (1)):(1) % phosphorylation =1− (Emission ratio× F100%)− C100%/(C0%−C100%) + [Emission ratio (F100%−F0%)] where C0% = Average coumarin emission signal of the […]; F100% = Average Fluorescein emission signal of the 100% Phos. Control; F0% = Average Fluorescein emission signal of the 0% Phos. Control.

For series [1], the system named is HCT-116 WT (colon cancer) cells. Kind of series: MTT antiproliferative assay, HCT-116 WT. To be noted: Homo sapiens, HCT-116, 48 h, read-out: IC50 (μM) ± SEM, HCT-116 WT (Colon Cancer). (In general: Tetrazolium assays rely on reduction of a dye to a coloured formazan, in cell work by metabolically active cells.)
The subject of a further series is MDA-MB-231 cells. The experiment in a line: H2DCFDA assay of ROS in MDA-MB-231. In kind it is cell-based, human. The conditions noted are these: sub-IC50 concentration, 48 h.
The test system of a further series is A549 cells. The experiment in a line: Flow cytometric PI cell cycle analysis in A549. In kind it is cell-based, human. To be noted: A549, sub-IC50 concentration, 48 h. Here is the method:
The assays were performed following our previous published reports. Briefly, A549 cells were cultured in 100 mm dishes and maintained to attain at least 80% confluency. […] After the stipulated period, the remaining media were collected along with the cells (trypsinization) and were centrifuged (1200 rpm for 5 min) and washed two times using 1X PBS. Furthermore, the cells were raised to the concentration of 400 µL and were equally divided (5 × 10^4) in four aliquots. The first three aliquots were added with H2DCFDA (10 µM/100 µL), JC-1 dye (1 mM/mL) and Annexin V and PI (as per manufacturer protocol (Thermo Fisher: V13242, Maharashtra, India) to analyze detection of alteration in ROS, ∆ψm and mode of cell death, respectively. The cancer cells were incubated in the dark for 30 min at rt before analysis. Next, the fourth aliquot cells were fixed using chilled ethanol (70%) and incubated at −20 °C for 4 h to allow fixing. After 4 h, cells were centrifuged (2200 rpm for 10 min) and washed twice with 1X PBS. Furthermore, the cells were treated with RNase and PI was added and they were further incubated for 30 min in the dark before analysis. All the samples were analyzed using BD C6 flow cytometer using various FL channels.

The test system of series [2] is MDA-MB-231 (breast cancer) cells. Kind of series: MTT antiproliferative assay, MDA-MB-231. The conditions noted are these: Homo sapiens, MDA-MB-231, 48 h, read-out: IC50 (μM) ± SEM, MDA-MB-231 (Breast Cancer).
Another series deals with MCF-7 (breast) cells. The experiment in a line: H2DCFDA assay of ROS in MCF-7. In kind it is cell-based. The conditions noted are these: sub-IC50 concentration, 48 h.
The subject of series [3] is A549 (lung cancer) cells harboring EGFR^WT. Kind of series: MTT antiproliferative assay, A549. To be noted: Homo sapiens, A549, 48 h, read-out: IC50 (μM) ± SEM, A549 (Lung Cancer).
Setting [4] is: EGFR wild type, tested at 100, 250, 500 and 720 nM, triplicate, read-out: EGFR Inhibition IC50 (nM) ± SEM.

Like-named read-outs stand apart in the source and are kept apart here.

Sequence of EGFR^WT (P00533 25-1210): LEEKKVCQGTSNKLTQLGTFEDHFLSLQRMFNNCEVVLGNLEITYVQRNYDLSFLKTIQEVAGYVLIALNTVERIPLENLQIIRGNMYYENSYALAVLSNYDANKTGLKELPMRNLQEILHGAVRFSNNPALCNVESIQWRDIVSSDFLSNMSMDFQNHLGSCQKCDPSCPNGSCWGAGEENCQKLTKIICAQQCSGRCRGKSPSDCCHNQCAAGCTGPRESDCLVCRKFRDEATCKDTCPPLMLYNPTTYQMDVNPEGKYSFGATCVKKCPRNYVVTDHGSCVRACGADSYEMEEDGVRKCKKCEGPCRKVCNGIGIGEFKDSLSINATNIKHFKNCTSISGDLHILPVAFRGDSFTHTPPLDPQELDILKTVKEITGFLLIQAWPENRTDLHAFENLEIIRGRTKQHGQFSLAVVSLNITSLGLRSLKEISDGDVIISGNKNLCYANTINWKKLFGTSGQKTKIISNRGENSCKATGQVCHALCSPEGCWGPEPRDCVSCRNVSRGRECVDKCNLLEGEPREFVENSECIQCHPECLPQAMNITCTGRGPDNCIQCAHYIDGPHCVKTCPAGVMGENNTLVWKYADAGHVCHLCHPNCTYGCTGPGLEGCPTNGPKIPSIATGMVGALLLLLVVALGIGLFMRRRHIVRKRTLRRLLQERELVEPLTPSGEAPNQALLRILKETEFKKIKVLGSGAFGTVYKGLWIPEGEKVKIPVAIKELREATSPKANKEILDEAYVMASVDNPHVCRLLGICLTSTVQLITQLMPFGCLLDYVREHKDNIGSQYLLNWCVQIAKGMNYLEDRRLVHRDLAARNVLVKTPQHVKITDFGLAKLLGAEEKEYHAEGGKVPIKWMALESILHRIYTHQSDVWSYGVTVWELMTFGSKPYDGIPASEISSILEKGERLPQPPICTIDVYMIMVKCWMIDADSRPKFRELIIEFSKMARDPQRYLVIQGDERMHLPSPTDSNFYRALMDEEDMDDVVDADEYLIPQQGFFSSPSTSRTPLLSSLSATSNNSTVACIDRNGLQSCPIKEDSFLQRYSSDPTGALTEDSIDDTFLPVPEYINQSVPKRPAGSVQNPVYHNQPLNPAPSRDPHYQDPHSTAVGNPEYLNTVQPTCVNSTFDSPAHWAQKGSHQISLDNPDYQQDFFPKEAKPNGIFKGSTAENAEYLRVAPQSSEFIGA

Usually IC50 stands for the point on the concentration scale where inhibition reaches its midpoint. Take `COc1cc(-c2nc3ccccc3n3c(N)c(C#N)nc23)cc(OC)c1OC` [Compound 5a]: the “EGFR^WT inhibitory activity in words” value at EGFR^WT (EGFR wild type) was “poorly active or possessed no activity at all”. The IC50 at EGFR^WT (setting [4]) was more than 720 nM.

Regarding `N#Cc1nc2c(-c3cccc([N+](=O)[O-])c3)nc3ccccc3n2c1N` [Compound 5b], the IC50 at EGFR^WT (setting [4]) worked out at 244.45 ± 0.032 nM.

The melting point is the temperature of the solid-liquid transition. In turn, `CN(C)c1ccc(-c2nc3ccccc3n3c(N)c(C#N)nc23)cc1` [Compound 5c, 1-Amino-4-(4-(dimethylamino)phenyl)imidazo[1,2-a]quinoxaline-2-carbonitrile] came in with a melting point of 169 to 171 °C. For the same molecule, at EGFR^WT (EGFR wild type), the “EGFR^WT inhibitory activity in words” value is listed as “poorly active or possessed no activity at all”. The IC50 on EGFR^WT (setting [4]) was more than 720 nM.

Molecule `CC(C)c1ccc(-c2nc3ccccc3n3c(N)c(C#N)nc23)cc1` [Compound 5d, 1-Amino-4-(4-isopropylphenyl)imidazo[1,2-a]quinoxaline-2-carbonitrile] gave a melting point of 166 to 168 °C. The “EGFR^WT inhibitory activity in words” value at EGFR^WT (EGFR wild type) is given as “poorly active or possessed no activity at all”. Further, the IC50 on EGFR^WT (setting [4]) was more than 720 nM.

For `COc1ccc(OC)c(/C=N/c2c(C#N)nc3c(-c4cc(OC)ccc4OC)nc4ccccc4n23)c1` [Compound 6a], on EGFR^WT (setting [4]), the IC50 was determined as 429.81 ± 0.018 nM.

On to `COc1cc(/C=N/c2c(C#N)nc3c(-c4cc(OC)c(OC)c(OC)c4)nc4ccccc4n23)cc(OC)c1OC` [Compound 6b, (E)-1-((3,4,5-Trimethoxybenzylidene)amino)-4-(3,4,5-trimethoxyphenyl)imidazo[1,2-a]quinoxaline-2-carbonitrile], for which the IC50 in series [1] stood at 5.1 ± 0.029 µM; at EGFR^WT (setting [4]), 211.22 ± 0.027 nM; in series [2], 4.1 ± 0.031 µM. The “Percentage decrease in ROS, MDA-MB-231” value in the series with MDA-MB-231 cells is “marginal”. In addition, the “Cell cycle analysis G1 (%)” value in the series on A549 cells turned out to be 34.51%. In addition, in the series on MCF-7 (breast) cells, the “Percentage decrease in ROS, MCF-7” value is “marginal”.

Molecule `COc1ccc(/C=N/c2c(C#N)nc3c(-c4ccc(OC)c(OC)c4)nc4ccccc4n23)cc1OC` [Compound 6c, (E)-1-((3,4-Dimethoxybenzylidene)amino)-4-(3,4-dimethoxy-phenyl)imidazo[1,2-a]quinoxaline-2-carbonitrile] came in with a melting point of 170 to 172 °C. The “EGFR^WT inhibitory activity in words” value on EGFR^WT (EGFR wild type) is listed as “poorly active or possessed no activity at all”. Moreover, the IC50 at EGFR^WT (setting [4]) is more than 720 nM.

For `N#Cc1nc2c(-c3ccc(Cl)cc3)nc3ccccc3n2c1/N=C/c1ccc(Cl)cc1` [Compound 6d], the “EGFR^WT inhibitory activity in words” value at EGFR^WT (EGFR wild type) is “poorly active or possessed no activity at all”. In addition, on EGFR^WT (setting [4]), the IC50 was more than 720 nM.

On to `COc1ccc(/C=N/c2c(C#N)nc3n2-c2ccccc2NC3c2ccc(OC)c(OC)c2)cc1OC` (stereo not shown) [Compound 7a], for which the IC50 on EGFR^WT (setting [4]) is more than 720 nM.

`N#Cc1nc2n(c1/N=C/c1ccccc1[N+](=O)[O-])-c1ccccc1NC2c1ccccc1[N+](=O)[O-]` (stereo not shown) [Compound 7b]: the IC50 on EGFR^WT (setting [4]) is more than 720 nM.

`N#Cc1nc2n(c1/N=C/c1ccc(O)c(O)c1)-c1ccccc1NC2c1ccc(O)c(O)c1` (stereo not shown) [Compound 7c]: the IC50 on EGFR^WT (setting [4]) worked out at 620.17 ± 0.019 nM.

For `COc1ccc(OC)c(/C=N/c2c(C#N)nc3n2-c2ccccc2NC3c2cc(OC)ccc2OC)c1` (stereo not shown) [Compound 7d], the IC50 on EGFR^WT (setting [4]) came out at 652.56 ± 0.024 nM.

`N#Cc1nc2n(c1/N=C/c1ccccc1Br)-c1ccccc1NC2c1ccccc1Br` (stereo not shown) [Compound 7e]: on EGFR^WT (setting [4]), the IC50 worked out at 665.89 ± 0.029 nM.

On to `N#Cc1nc2n(c1/N=C/c1ccco1)-c1ccccc1NC2c1ccco1` (stereo not shown) [Compound 7f], for which the IC50 on EGFR^WT (setting [4]) was determined as 232.4 ± 0.031 nM.

Take `N#Cc1nc2n(c1/N=C/c1ccc([N+](=O)[O-])cc1[N+](=O)[O-])-c1ccccc1NC2c1ccc([N+](=O)[O-])cc1[N+](=O)[O-]` (stereo not shown) [Compound 7g]: the IC50 on EGFR^WT (setting [4]) was 476.87 ± 0.022 nM.

For the molecule `N#Cc1nc2n(c1/N=C/c1ccccc1F)-c1ccccc1NC2c1ccccc1F` (stereo not shown) [Compound 7h], the IC50 in series [1] was less than 1 µM; at EGFR^WT (setting [4]), 222.21 ± 0.028 nM; in series [3], 4.09 ± 0.024 µM; in series [2], 11.2 ± 0.022 µM.

Take `COc1cc(/C=N/c2c(C#N)nc3n2-c2ccccc2NC3c2cc(OC)c(OC)c(OC)c2)cc(OC)c1OC` (stereo not shown) [Compound 7i]: on EGFR^WT (EGFR wild type), the “EGFR^WT inhibitory activity in words” value is “poorly active or possessed no activity at all”. In addition, the IC50 at EGFR^WT (setting [4]) turned out to be 613.37 ± 0.024 nM.

Consider `N#Cc1nc2n(c1/N=C/c1ccc([N+](=O)[O-])cc1)-c1ccccc1NC2c1ccc([N+](=O)[O-])cc1` (stereo not shown) [Compound 7j], for which the IC50 is less than 1 µM in series [1], 193.18 ± 0.021 nM against EGFR^WT, 8.75 ± 0.028 µM in series [3] and 2.2 ± 0.026 µM in series [2].

`N#Cc1ccc(/C=N/c2c(C#N)nc3n2-c2ccccc2NC3c2ccc(C#N)cc2)cc1` (stereo not shown) [Compound 7k, (E)-1-((4-Cyanobenzylidene)amino)-4-(4-cyanophenyl)-4,5-dihydroimidazo[1,2-a]quinoxaline-2-carbonitrile] yielded a melting point of 173 to 175 °C. Moreover, the “EGFR^WT inhibitory activity in words” value at EGFR^WT (EGFR wild type) was “poorly active or possessed no activity at all”. Also, the IC50 on EGFR^WT (setting [4]) was more than 720 nM.

On to `N#Cc1ccc(C2Nc3ccccc3-n3c2nc(C#N)c3N)cc1` (stereo not shown) [Compound 8a], for which the IC50 at EGFR^WT (setting [4]) is more than 720 nM.

With `N#Cc1nc2n(c1N)-c1ccccc1NC2c1cccc([N+](=O)[O-])c1` (stereo not shown) [Compound 8b], on EGFR^WT (setting [4]), the IC50 is more than 720 nM.

Molecule `N#Cc1nc2n(c1N)-c1ccccc1NC2c1ccccc1[N+](=O)[O-]` (stereo not shown) [Compound 8c, 1-Amino-4-(2-nitrophenyl)-4,5-dihydroimidazo[1,2-a]quinoxaline-2-carbonitrile] gave a melting point of 165 to 167 °C. Also, the IC50 on EGFR^WT (setting [4]) was more than 720 nM.

As for `C/C(=N\c1c(C#N)nc2n1-c1ccccc1NC2(C)c1ccc(Cl)cc1)c1ccc(Cl)cc1` (stereo not shown) [Compound 9a], the IC50 in series [1] is more than 25 µM; on EGFR^WT (setting [4]), 223.32 ± 0.031 nM; in series [3], 6.63 ± 0.031 µM; in series [2], 14.1 ± 0.021 µM.

`C/C(=N\c1c(C#N)nc2n1-c1ccccc1NC2(C)c1cccs1)c1cccs1` (stereo not shown) [Compound 9b]: the IC50 at EGFR^WT (setting [4]) was found to be 244.51 ± 0.021 nM.

`COc1ccc(/C(C)=N/c2c(C#N)nc3n2-c2ccccc2NC3(C)c2ccc(OC)c(OC)c2)cc1OC` (stereo not shown) [Compound 9c]: the IC50 stood at 7.9 ± 0.027 µM in series [1], 221.53 ± 0.028 nM at EGFR^WT (setting [4]), 12.06 ± 0.021 µM in series [3] and 13.6 ± 0.028 µM in series [2].

Turning to `CC1(c2cccc([N+](=O)[O-])c2)Nc2ccccc2-n2c1nc(C#N)c2N` (stereo not shown) [Compound 10a], at EGFR^WT (setting [4]), the IC50 came to 247.32 ± 0.021 nM.

With `N#Cc1nc2n(c1N)-c1ccccc1NC2(C(=O)c1ccccc1)c1ccccc1` (stereo not shown) [Compound 10c], on EGFR^WT (setting [4]), the IC50 stood at 716.32 ± 0.026 nM.

As to `CC1(C)Nc2ccccc2-n2c1nc(C#N)c2N` [Compound 10d], the IC50 at EGFR^WT (setting [4]) is 624.57 ± 0.024 nM.

On to `N#Cc1nc2n(c1N)-c1ccccc1N1C(=O)CCC21` (stereo not shown) [Compound 11], for which, at EGFR^WT (EGFR wild type), the “EGFR^WT inhibitory activity in words” value was “poorly active or possessed no activity at all”. For the same molecule, on EGFR^WT (setting [4]), the IC50 amounted to 669.39 ± 0.019 nM.

`C#Cc1cccc(Nc2ncnc3cc(OCCOC)c(OCCOC)cc23)c1` [Erlotinib, erlotinib, reference compound]: the IC50 in series [1] was determined as 2.98 ± 0.023 µM; in series [2], 3.33 ± 0.018 µM.

These data come from publication PMC7967119, “Design and Synthesis of Non-Covalent Imidazo[1,2-a]quinoxaline-Based Inhibitors of EGFR and Their Anti-Cancer Assessment” (Molecules, 2021).
